Experiment [1] concerns the target T1, GTPase KRas (G12D) (Homo sapiens, UniProt P01116, G12D). Description: KRAS-GDP Protein Assay. Here is the method:
6> Add 5 μL of KRAS solution prepared with Buffer 1 to each well of the high-signal control group and compound test wells. Add 5 μL of Buffer 1 to each well of the low-signal control group. The final concentration of KRAS in the reaction is 5 nM (initially 40 nM, optimized to 5 nM). Incubate at room temperature for 1 hour.7> Add 5 μL of a solution containing SOS1 and GTP prepared with Buffer 2 to each well. Final concentrations in the reaction: 50 nM for SOS1 (initially 250 nM) and 125 μM for GTP (initially 625 μM). Incubate at room temperature for 1 hour.8> Add 5 μL of a solution containing cRAF and AlphaLISA Nickel Acceptor beads prepared with Buffer 2 to each well. Final concentrations in the reaction: 50 nM for cRAF and 20 μg/mL for AlphaLISA Nickel Acceptor beads. Incubate at room temperature for 1 hour.9> Add 5 μL of an AlphaScreen GSH Donor beads solution prepared with Buffer 2 to each well. Final concentration in the reaction: 20 μg/mL. Incubate at room temperature for 1 hour.10> Measure the signal values using an EnVision plate reader. Excitation wavelength: 680 nm, Emission wavelength: 615 nm.

In experiment [2] the target is T1, GTPase KRas (G12D). Nature of the experiment: KRAS-GCP Protein Assay. Here is the method: 6> Add 5 μL of KRAS solution prepared with Buffer 1 to each well of the high-signal control group and compound test wells; […]. The final concentration of KRAS in the reaction is 5 nM. Incubate at room temperature for 1 hour.7> Add 5 μL of Buffer 2 to each well. Incubate at room temperature for 1 hour.8> Add 5 μL of a solution containing cRAF and AlphaLISA Nickel Acceptor beads prepared with Buffer 2 to each well. Final concentrations in the reaction: 50 nM for cRAF and 20 μg/mL for AlphaLISA Nickel Acceptor beads. Incubate at room temperature for 1 hour.9> Add 5 μL of an AlphaScreen GSH Donor beads solution prepared with Buffer 2 to each well. Final concentration in the reaction: 20 μg/mL. Incubate at room temperature for 1 hour.10> Measure the signal values using an EnVision plate reader.

Experiment [3] deals with T1, GTPase KRas (G12D). Description: KRAS-GTP Protein Assay. How it is done:
6> Mix the prepared protein solution with the SOS1-GTP solution (at the same concentration as used for the GDP protein assay) in a 1:1 volume ratio. Pre-incubate the mixture at room temperature for 1 hour.7> Add 10 μL of the mixture from Step I to each well of the high-signal control group and compound test wells. For the low-signal control group, add 5 μL of Buffer 1 and 5 μL of the SOS1-GTP mixture to each well. Incubate at room temperature for 1 hour.8> Add 5 μL of a solution containing cRAF and AlphaLISA Nickel Acceptor beads prepared with Buffer 2 to each well. Final concentrations in the reaction: 50 nM for cRAF and 20 μg/mL for AlphaLISA Nickel Acceptor beads. Incubate at room temperature for 1 hour.9> Add 5 μL of an AlphaScreen GSH Donor beads solution prepared with Buffer 2 to each well. Final concentration in the reaction: 20 μg/mL. Incubate at room temperature for 1 hour.10> Measure the signal values using an EnVision plate reader. Excitation wavelength: 680 nm, Emission wavelength: 615 nm.

The results in this text go back to BindingDB's records for patent US20260049089 (Shanghai Apeiron Therapeutics Company, 2026).

Usually IC50 stands for the concentration that inhibits the measured activity by half. A high value points to weaker potency.

Some results are limits rather than exact numbers.

T1 sequence (P01116 whole entry G12D): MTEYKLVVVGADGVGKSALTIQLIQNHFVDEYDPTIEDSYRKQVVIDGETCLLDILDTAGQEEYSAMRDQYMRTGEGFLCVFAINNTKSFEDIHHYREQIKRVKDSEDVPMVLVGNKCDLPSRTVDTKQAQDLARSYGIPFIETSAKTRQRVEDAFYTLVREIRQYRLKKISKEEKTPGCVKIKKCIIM

In the case of `Oc1cc2c3c(c(F)ccc3c1)CCCCNc1cc3c(N4CC5CCC(C4)N5)nc(OC[C@@]45CCCN4C[C@H](F)C5)nc3c(F)c1-2` [US20260049089, Example 2], the figures for the IC50 on GTPase KRas (G12D) [1], on GTPase KRas (G12D) [2] and against GTPase KRas (G12D) [3] were 2.87 nM, more than 1000 nM and 3.23 nM, respectively.
The like results for `CN1CCCCc2c(F)ccc3cc(O)cc(c23)-c2c1cc1c(N3CC4CCC(C3)N4)nc(OC[C@@]34CCCN3C[C@H](F)C4)nc1c2F` [US20260049089, Example 3] were, in that order, 2.31 nM, more than 1000 nM and 3.24 nM.
The like results for `O=C1CCCCc2c(F)ccc3cc(O)cc(c23)-c2c(cc3c(N4CC5CCC(C4)N5)nc(OC[C@@]45CCCN4C[C@H](F)C5)nc3c2F)N1` [US20260049089, Example 4] were, in that order, 2.2 nM, 94.4 nM and 3.5 nM.
As for `Oc1cc2c3c(c(F)ccc3c1)CCCCCNc1cc3c(N4CC5CCC(C4)N5)nc(OC[C@@]45CCCN4C[C@H](F)C5)nc3c(F)c1-2` [US20260049089, Example 5], the figures for the IC50 against GTPase KRas (G12D) [1], at GTPase KRas (G12D) [2] and against GTPase KRas (G12D) [3] were 2.06 nM, 232 nM and 2.63 nM, respectively.
